The test system of experiment [1] is SREBP-2. The experiment is described as follows: Western blot of SREBP-2 activation in HepG2 cells. The experiment is classed as cell-based, human.
Description: Western blot analysis of SREBPs activation following 25HC3S or 25HC treatment in HepG2 cells. Total proteins were extracted from HepG2 cells treated with 25HC in ethanol (0.1%) (FIGS. 18A and 18C) or 25HC3S in DMSO (0.1%) (FIGS. 18B and 18D), cultured in the media in absence (FIGS. 18A and 18B) or presence (FIGS. 18C and 18D) of mevinolin (50 mM) and mevalonate (0.5 mM). SREBP-1 and SREBP-2 protein levels in the cells were determined by Western blot analysis. The extracted protein (100 μg) was loaded onto each lane for each condition as indicated. The data represent a typical result from one of three independent experiments.
Microsomal proteins (80 μg) were separated on a 7.5% SDS-polyacrylamide denaturing gel according to the method of Laemmli (14). Following SDS-PAGE (Hoefer Vertical Slab Gel Unit; Heofer, San Francisco, Calif.), proteins were electrophoretically transferred overnight (4° C.) to Immobilon-P membranes using a Hoefer Trans Blot Electrophoretic Transfer cell. The membranes were then blocked for 90 minutes (25° C.) in blocking buffer (PBS, pH 7.4, 0.1% Tween, 5% non-fat dry milk). Proteins were then incubated for 90 minutes (25° C.) or overnight (4° C.) with a rabbit polyclonal IgG (1:2500-1:20,000) against human SREBP-1, SREBP-2, or HMG CoA reductase. […] Protein bands were detected using the Amersham ECL plus Kit.
Experiment [2] concerns IL-1β and TNFα release. In words: ELISA analysis of LPS-induced cytokine releases from macrophages. Particulars: LPS 1 μg/ml, 24 hrs; for LPS-induced IL-1β release: concentration-dependent. The experiment is classed as cell-based, human. The procedure: A total of 1×10^6 macrophages were treated with LPS (1 μg/ml) and/or different concentrations of 25HC or 25HC3S for 24 hrs. Supernatants were harvested and cytokines IL-1ß and TNF-α concentration were measured by enzyme-linked immunosorbent assay (ELISA) according to manufacturer's instruction (SuperArray Bioscience, Frederick Md.). SiRNA-mediated macrophage RNA interference

The target in experiment [3] is T1, PPARγ (Homo sapiens, UniProt P37231).
T1 construct: THP-1 monocytes were differentiated to macrophages by adding 100 nM of phorbol 12-myristate 13-acetate (PMA); endogenous in cells; host or cells: THP-1 monocyte-derived macrophages (human, ATCC)
T1 sequence (P37231 1-505): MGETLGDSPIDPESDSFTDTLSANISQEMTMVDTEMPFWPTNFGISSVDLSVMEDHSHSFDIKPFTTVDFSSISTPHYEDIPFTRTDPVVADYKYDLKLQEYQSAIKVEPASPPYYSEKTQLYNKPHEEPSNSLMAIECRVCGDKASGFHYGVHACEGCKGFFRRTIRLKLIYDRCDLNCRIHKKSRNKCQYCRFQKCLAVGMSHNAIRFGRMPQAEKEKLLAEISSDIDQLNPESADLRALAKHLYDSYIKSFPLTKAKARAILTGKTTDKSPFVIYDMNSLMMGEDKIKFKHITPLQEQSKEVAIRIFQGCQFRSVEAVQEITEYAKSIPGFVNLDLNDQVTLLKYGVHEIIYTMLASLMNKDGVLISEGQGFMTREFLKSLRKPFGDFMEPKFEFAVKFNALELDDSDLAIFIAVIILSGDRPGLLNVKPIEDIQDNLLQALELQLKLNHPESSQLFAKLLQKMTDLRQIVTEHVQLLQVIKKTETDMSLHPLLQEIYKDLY
The experiment is described as follows: Western blot of nuclear PPARγ levels in THP-1 macrophages. Particulars: for nuclear PPARγ protein levels: THP-1 macrophages, 4 hrs. The experiment is classed as cell-based. The protocol:
FIGS. 21A and 21B. Effects of 25HC3S and 25HC on PPARγ protein levels in THP-1 macrophages. A, THP-1 macrophages were treated with 25HC3S (top panel) or 25HC (middle panel) at different concentration as indicated for 4 hrs. The nuclear PPARγ levels were analyzed by Western blot. […] Expression levels were normalized to Lamin as shown in the bottom panels. The data represent one typical result out of three experiments.
Human THP-1 monocytes and H441 cells were purchased from the American Type Culture Collection (Manassas, Va.) and maintained according to the supplier's protocols. THP-1 monocytes were differentiated to macrophages by adding 100 nM of phorbol 12-myristate 13-acetate (PMA). When cells reached 90% confluence, oxysterols in DMSO or in ethanol (the final concentration in media was <0.1%) were added as indicated. The cells were harvested at the times as indicated. Nuclear and cytosolic fractions were isolated using NE-PER®, Nuclear and Cytoplasmic Extraction Reagents (Pierce, Rockford, Ill. Western blot analysis of nuclear PPAR and intracellular I B levels
Fifty μg of total cell lysates or nuclear protein extracts, otherwise as indicated, were separated on 10% SDS-PAGE gels and transferred onto a polyvinylidene difluoride membrane as described previously. Membranes were blocked in TBS containing 5% of nonfat dried milk for 1 hr. The specific proteins were determined by incubation with specific antibodies against human PPAR or IκB overnight at 4° C. with shaking. After washing, the membrane was incubated in a 1:3,000 dilution of a secondary antibody (goat anti-rabbit or anti-mouse IgG-HP conjugate; Bio-Rad, Hercules, Calif.) at room temperature for 1 hr in the washing buffer (Tris buffered solution containing 0.5% Tween 20). The protein bands were visualized using Western Lightening Chemiluminescence Reagent (Perkin-Elmer, Waltham, Mass.). The expression levels were normalized to Lamin.

Experiment [4] deals with LXR. Conditions: macrophages, cited from earlier work.
In experiment [5] the test system is HMG CoA reductase mRNA. The experiment is described as follows: HMG CoA reductase mRNA by real-time RT-PCR in primary human hepatocytes. The experiment is classed as cell-based. The arrangement: effect on levels of HMG CoA reductase mRNA: dose or concentration left out as unconfirmed. Conditions: for inhibition of HMG CoA reductase mRNA: PHH cultured in serum-free media. The protocol: Primary human hepatocytes were purchased from an NIH-approved facility (Liver Tissue Procurement Distribution System, Univ. of Minnesota). Cells were obtained from a random sampling of males and females 18-69 yr of age. Experiments were performed as cells became available to corroborate findings in experiments conducted in HepG2 cells as previous described (13).
Total RNA was isolated from HepG2 cells using SV Total RNA Isolation Kit (Promega). Two μg of total RNA was used for first-strand cDNA synthesis as recommended by manufacture (Invitrogen). Real-time PCR was performed using SYBR Green on ABI 7500 Fast Real-Time PCR System (Applied Biosystems). The final reaction mixture contained 5 ng of cDNA, 100 nM of each primer, 10 μl of 2×SYBR® Green PCR Master Mix (Applied Biosystems), and RNase-free water to complete the reaction mixture volume to 20 μl. All reactions were performed in triplicate. The PCR was carried out for 40 cycles at 95° C. for 15 s and 60° C. for 1 min. The fluorescence was read during the reaction, allowing a continuous monitoring of the amount of PCR product. The data was normalized to internal control-β-actin or GAPDH mRNA. The sequences of primers for HMG CoA reductase used in real-time PCR are […] (SEQ ID NO: 1) (Forward) and […] (SEQ ID NO: 2) (Reverse).

Experiment [6] deals with NFκB. The experiment is described as follows: Western blot of nuclear NFκB levels in THP-1 macrophages. The experiment is classed as cell-based, human.
Description: A, THP-1 macrophages were treated with 25HC3S or 25HC for 24 hrs followed by addition or no addition of TNFα for another 3 hrs. The nuclear NFκB levels were analyzed by Western blot. The data represent one typical result out of three experiments.
Fifty μg of total cell lysates or nuclear protein extracts, otherwise as indicated, were separated on 10% SDS-PAGE gels and transferred onto a polyvinylidene difluoride membrane as described previously [31]. Membranes were blocked in TBS containing 5% of nonfat dried milk for 1 hr. The specific proteins were determined by incubation with specific antibodies against human PPAR or IκB overnight at 4° C. with shaking. After washing, the membrane was incubated in a 1:3,000 dilution of a secondary antibody (goat anti-rabbit or anti-mouse IgG-HP conjugate; Bio-Rad, Hercules, Calif.) at room temperature for 1 hr in the washing buffer (Tris buffered solution containing 0.5% Tween 20). The protein bands were visualized using Western Lightening Chemiluminescence Reagent (Perkin-Elmer, Waltham, Mass.). The expression levels were normalized to Lamin.

Consider `C[C@H](CCCC(C)(C)O)[C@H]1CC[C@H]2[C@@H]3CC=C4C[C@@H](OS(=O)(=O)O)CC[C@]4(C)[C@H]3CC[C@]12C` [25HC3S, 5-cholesten-3β, 25-diol 3-sulphate], for which, in experiment [1], the “mature form of SREBP-2” value is “only slightly decreased”. Moreover, in experiment [2], the “LPS-induced release of TNFα” value is on record as “represses” and the “LPS-induced IL-1β release” value is on record as “significantly decreased”. The “nuclear PPARγ protein levels” value in experiment [3] is on record as “substantially increased”. Besides, the “nuclear PPARγ levels in the presence of the antagonist T0070907” value in experiment [3] (preincubated with 1 μM of T0070907 for 2 hrs) is “failed to increase the nuclear PPARγ levels to its maxima”. Also, the “LXR activities and its targeting gene expressions” value in experiment [4] is recorded as “decreases”. In addition, in experiment [5], the “inhibition of HMG CoA reductase mRNA” value is 75%. Further, the “nuclear NFκB levels” value in experiment [6] (in the absence of TNFα, 24 hrs) is “decreased”. Also, the “nuclear NFκB levels” value in experiment [6] (in the presence of TNFα) is reported as “failed to decrease”.
Consider `C[C@H](CCCC(C)(C)O)[C@H]1CC[C@H]2[C@@H]3CC=C4C[C@@H](O)CC[C@]4(C)[C@H]3CC[C@]12C` [25HC, 25-hydroxycholesterol, reference compound], for which, in experiment [1], the “mature form of SREBP-2” value was “only slightly decreased”. Further, the “LPS-induced IL-1β release” value in experiment [2] is “increased”. Further, in experiment [3], the “nuclear PPARγ protein levels” value was “decreased”. Further, the “rosiglitazone-increased nuclear PPARγ levels” value in experiment [3] (preincubated with 1 μM of rosiglitazone for 2 hrs, 25HC for 4 hrs) is “significantly inhibited”. In addition, the “increase of LXR targeting gene expressions, ABCA1/G1 and SREBP-1 mRNAs” value in experiment [4] (in 6 hrs) is 5-50 fold. Besides, the “inhibition of HMG CoA reductase mRNA” value in experiment [5] was 15%. For the same compound, the “effect on levels of HMG CoA reductase mRNA” value in experiment [5] (PHH, serum-free media) is recorded as roughly 15%. The “nuclear NFκB levels” value is on record as “increased” in experiment [6] (in the absence of TNFα, 24 hrs) and “significantly increased” in experiment [6] (in the presence of TNFα).

The values above are taken from patent US11384115B2, “Nuclear sulfated oxysterol, potent regulator of lipid homeostasis, for therapy of hypercholesterolemia, hypertriglycerides, fatty liver diseases, and atherosclerosis” (Virginia Commonwealth University, priority 2004, dated 2022).
